EP0363836A2, “Use of homopiperazines in the preparation of a medicament for preventing or treating organ rejection reactions” (BEHRINGWERKE Aktiengesellschaft, priority 1988, dated 1990)

How the values were obtained:
[1] = tested on: Fischer-Ratten; assay: Rat tail skin transplantation, Lewis donor to Fischer recipient: graft survival time; type: in vivo; conditions: d0-9, mean ± s of 5 animals
Source text: (§1) In einem Experimentalansatz wurden Schwanzhautstückchen von Lewis Ratten mit einer Größe von etwa 0.5 x 1.0 cm auf den Schwanz von Fischer Ratten verpflanzt. In einem weiteren Modell wurde die Schwanzhaut von DA Ratten auf Lewis Ratten transplantiert. Die transplantierten Hautstücke werden vom Immunsystem der Empfängertiere als fremd erkannt und abgestoßen. Wie in Tabelle I zu sehen ist, betrug die Transplantüberlebenszeit im Lewis-Fischer-Rattenmodell in den Kontrollgruppen, die nur mit dem Lösungsmittel behandelt wurden zwischen 16 und 18 Tagen. Die Verbindung der Formel I mit R₁ = H wurde in verschiedenen Konzentrationen (1, 5, 10, 20 und 40 mg/kg Körpergewicht pro Injektion) an 10 aufeinanderfolgenden Tagen, beginnend mit dem Tag der Transplantation, entweder oral oder intraperitoneal verabreicht. Hierbei zeigt sich, daß sich durch verschiedene Konzentrationen der Substanz die Überlebenszeiten der Transplantate dosisabhängig von 15.8 ± 2.4 auf 26.8 ± 1.3 bzw. 18.4 ± 1.5 auf 28.4 ± 1.1 erhöhen ließen, wobei 10 mg/kg eine optimal wirksame Dosis zu sein scheinen.

[2] = tested on: Lewis Ratten; assay: Rat tail skin transplantation, DA donor to Lewis recipient: graft survival time; type: in vivo; conditions: d0-9, mean ± s of 5 animals, * p 0.001
Source text: as §1
Auch im anderen Transplantationsmodell mit DA Ratten (Spender) und Lewis Ratten (Empfänger) kommt es zu einer Verlängerung der Transplantatüberlebenszeiten durch die Gabe von Homopiperazinen. Hier stoßen die nur mit dem Lösungsmittel behandelten Kontrolltiere das Transplantat ca. am Tag 12 ab. Durch die Behandlung (p.o. oder i.p. […]

With `CC(C)(C)c1cc(C(=O)N2CCCNCC2)cc(C(C)(C)C)c1O` [Verbindung der Formel I mit R¹ = H] the “Tage bis zur Abstoßung (x ± s)” value ([1]; 1 mg/kg, 10xip) was “(22.8 ± 2.2) Tage”, the “Tage bis zur Abstoßung (x ± s)” value ([1]; 1 mg/kg, 10xpo) was “(21.6 ± 1.3) Tage” and the “Tage bis zur Abstoßung (x ± s)” value ([1]; 5 mg/kg, 10xip) was “(25.0 ± 2.6) Tage”. For the same compound, the “Tage bis zur Abstoßung (x ± s)” value ([1]; 5 mg/kg, 10xpo) was “(25.2 ± 0.8) Tage”, the “Tage bis zur Abstoßung (x ± s)” value ([1]; 10 mg/kg, 10xip) was “(26.8 ± 1.3) Tage” and the “Tage bis zur Abstoßung (x ± s)” value ([1]; 10 mg/kg, 10xip, listed as Verbindung der Formel I mit R₁ = H) was 26.8 ± 1.3 Tage. The “Tage bis zur Abstoßung (x ± s)” value ([1]; 10 mg/kg, 10xpo) was “(28.4 ± 1.1) Tage”, the “Tage bis zur Abstoßung (x ± s)” value ([1]; 10 mg/kg, 10xpo, listed as Verbindung der Formel I mit R₁ = H) was 28.4 ± 1.1 Tage and the “Tage bis zur Abstoßung (x ± s)” value ([1]; 20 mg/kg, 10xip) was “(25.2 ± 1.6) Tage”. For the same compound, the “Tage bis zur Abstoßung (x ± s)” value ([1]; 20 mg/kg, 10xpo) was “(26.8 ± 0.8) Tage”, the “Tage bis zur Abstoßung (x ± s)” value ([1]; 40 mg/kg, 10xip) was “(22.4 ± 2.4) Tage” and the “Tage bis zur Abstoßung (x ± s)” value ([1]; 40 mg/kg, 10xpo) was “(24.6 ± 2.0) Tage”. The “Tage bis zur Abstoßung (x ± s)” value ([2]; 5 mg/kg, 5xip) was “(16.0 ± 1.2)* Tage”, the “Tage bis zur Abstoßung (x ± s)” value ([2]; 10 mg/kg, 5xip) was “(16.6 ± 1.8)* Tage” and the “Tage bis zur Abstoßung (x ± s)” value ([2]; 10 mg/kg, 10xpo) was “(16.6 ± 0.6)* Tage”. The “Tage bis zur Abstoßung (x ± s)” value ([2]; 25 mg/kg, 5xip) was “(17.8 ± 0.8)* Tage”, the “Tage bis zur Abstoßung (x ± s)” value ([2]; 25 mg/kg, 10xpo) was “(17.4 ± 0.6)* Tage” and the “Tage bis zur Abstoßung (x ± s)” value ([2]; 50 mg/kg, 5xip) was “(19.6 ± 1.8)* Tage”. For the same compound, the “Tage bis zur Abstoßung (x ± s)” value ([2]; 50 mg/kg, 10xpo) was “(18.6 ± 1.1)* Tage”.
